For orientation: IC50 means the concentration at which inhibition is half-maximal.

The source made the active and inactive calls. How the calls were made is not given here.

In this experiment the target is ATP-sensitive inward rectifier potassium channel 1 (Homo sapiens) (UniProt P48048). Put plainly: concentration-response of Kir1.1 channel inhibition – cell-based, thallium flux, HEK293, dose response (AID 2753). To be noted: HEK293 ROMK thallium flux, fluorescence.
ATP-sensitive inward rectifier potassium channel 1 (Homo sapiens), sequence (P48048 whole entry, looked up): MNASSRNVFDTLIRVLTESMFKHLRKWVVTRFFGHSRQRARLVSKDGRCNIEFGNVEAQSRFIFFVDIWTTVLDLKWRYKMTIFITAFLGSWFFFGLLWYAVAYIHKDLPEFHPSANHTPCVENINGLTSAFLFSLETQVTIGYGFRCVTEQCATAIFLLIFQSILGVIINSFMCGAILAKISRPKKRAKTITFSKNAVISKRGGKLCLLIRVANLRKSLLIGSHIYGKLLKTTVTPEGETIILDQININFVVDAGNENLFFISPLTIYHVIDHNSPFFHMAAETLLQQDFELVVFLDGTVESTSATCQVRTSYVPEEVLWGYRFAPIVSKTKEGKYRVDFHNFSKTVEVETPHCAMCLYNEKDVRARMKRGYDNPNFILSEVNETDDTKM
As for `N#Cc1nc(-c2cccs2)oc1NCc1ccccc1`, the IC50 is 7.04 µM.

Consider `N#C/C(=C/c1ccncc1)c1nc2ccccc2s1`, for which the IC50 was 2.68 µM.

Turning to `O=C1ON=C(c2cccc([N+](=O)[O-])c2)/C1=C/c1ccc(O)cc1`, the 50% inhibitory concentration (IC50) was 5.68 µM.

`COC(=O)C1=C(C)N(C)C(C)=C(C(=O)OC)C1c1ccccc1C`: the IC50 is 39.9 µM.

Take `Cc1nn(-c2ccccc2)c(Cl)c1/C=C(\C#N)C(=O)NC(C)C`: the IC50 was 45.5 µM.

Turning to `CS(=O)(=O)N1CCc2cc(-c3csc(NC(=O)Cc4cccs4)n3)ccc21`, the IC50 result is “inactive”.

For the molecule `COc1ccccc1/C=C(\C#N)C(=O)Nc1ccc(S(N)(=O)=O)cc1`, the IC50 entry is “inactive”.

For `COC(=O)[C@@]1(Cc2ccccc2)[C@@H]2C(=CC(=O)[C@H]2CC(=O)C(=O)N(C)C)CN1C(=O)c1ccccc1`, the IC50 is 81 µM.

Take `CCCNC(=O)c1nnsc1S(=O)(=O)c1ccc(Cl)cc1`: the IC50 was 9.69 µM.

Consider `Cc1cc2c(cc1S(=O)(=O)N(C)c1ccccc1)NC(=O)CO2`, for which the IC50 was 0.909 µM.

In the case of `Cc1cnc2ncc3sccc3c2c1`, the IC50 was 13.5 µM.

For the molecule `C[n+]1c2n(c3ccccc31)N=C(c1cc(C(C)(C)C)c(O)c(C(C)(C)C)c1)CS2`, the IC50 is 73.3 µM.

Turning to `Cc1ccc(/C=C(\C#N)C(=O)NCCN2CCOCC2)cc1`, the IC50 result is “inactive”.

Consider `Cc1ccc(-n2c3nc(=O)[nH]c(=O)c-3cc3cc([N+](=O)[O-])ccc32)cc1`, for which the IC50 is 8.66 µM.

For the molecule `CC(=O)c1c(C)nc(-c2cccc([N+](=O)[O-])c2)n1O`, the IC50 entry was “inactive”.

Consider `Cc1ccc(N2C(=O)NC(=O)/C(=C\C=C\c3ccco3)C2=O)cc1C`, for which the 50% inhibitory concentration (IC50) is 2.33 µM.

As for `COCCNC(=O)/C(C#N)=C/c1cccc(/C=C(\C#N)C(=O)NCCOC)c1`, the IC50 was 2.87 µM.

For `O=C(CCl)N(c1ccccc1)c1ccccc1`, the IC50 entry was “inactive”.

In the case of `N#C/C(=C\C1CC=CCC1)c1nc2ccccc2[nH]1` (centres undefined), the IC50 result was “inactive”.

As for `Cc1ccc(C2=NOC(=O)/C2=C\c2ccc(C)o2)cc1`, the IC50 is 5.22 µM.

On to `CCCC(C(=O)NCc1ccco1)N(C(=O)CNS(=O)(=O)c1ccccc1)c1ccccc1OC` (centres undefined), for which the IC50 entry was “inactive”.

For the molecule `COc1ccc(CNCC(O)COc2ccc(C)cc2[N+](=O)[O-])cc1` (centres undefined), the IC50 entry is “inactive”.

On to `C=CCNC(=O)/C(C#N)=C\c1cc(Cl)c(OCC)c(OC)c1`, for which the IC50 is 86.8 µM.

`c1csc(CNc2ncnc3sccc23)c1`: the IC50 entry is “inactive”.

For the molecule `O=C1C=C(c2ccccc2)C(=O)N1Nc1ccccc1`, the half-inhibitory concentration (IC50) is 2.77 µM.

For the molecule `O=C1C=CC(=O)C(C2=C3C(=O)N(CCc4ccccc4)CC(=O)N3CCC2)=C1`, the IC50 was 13 µM.

Turning to `COc1ccc(-n2nc(C#N)c(Cl)cc2=O)cc1`, the IC50 is 10.3 µM.

As to `COc1ccc2c(c1OC)C(=O)OC2Nc1nc(-c2cc3ccccc3oc2=O)cs1` (centres undefined), the IC50 entry was “inactive”.

For `O=c1c2ccccc2nc(/C=C/c2ccc([N+](=O)[O-])o2)n1CCCO`, the IC50 entry was “inactive”.

On to `O=C1c2[nH]nc(-c3ccccc3O)c2C(c2cccc(Cl)c2)N1CC1CCCO1` (centres undefined), for which the IC50 entry is “inactive”.

As to `CNC(=O)c1nnsc1S(=O)c1ccc(Cl)cc1` (centres undefined), the IC50 was 0.647 µM.

On to `CCOCCCNC(=O)/C(C#N)=C/c1ccccc1F`, for which the IC50 result was “inactive”.

With `COc1cc2c(cc1OC)C(/C=C/c1ccco1)=NCC2`, the IC50 was 4.07 µM.

Turning to `O=[N+]([O-])c1ccc(N2CCCNCC2)c2ncccc12`, the IC50 was 10.7 µM.

On to `Cc1cc(=O)oc2cc(NC(=S)NCc3ccccn3)ccc12`, for which the IC50 was 7.2 µM.

Regarding `O=C(CN1CCCC1)Nc1c2c(nc3ccccc13)N(Cc1ccccc1)CC2`, the IC50 entry was “inactive”.

In the case of `CNC(=O)c1nnsc1S(=O)(=O)c1ccc(Cl)cc1`, the half-inhibitory concentration (IC50) was 7.46 µM.

In the case of `CN(C)c1nc(C=C(C#N)C#N)c(Cl)n1-c1ccc(F)cc1`, the concentration for half-maximal inhibition (IC50) was 2.98 µM.

`CC1=NOC(=O)/C1=C\c1ccc(-c2ccccc2Br)o1`: the IC50 entry is “inactive”.

Consider `CCCS(=O)(=O)c1nnnn1-c1cccc(OC)c1`, for which the IC50 result was “inactive”.

On to `COC(=O)C(=Cc1ccccc1[N+](=O)[O-])C(=O)OC`, for which the IC50 is 8.19 µM.

`COc1cc(NC(=O)C2CCN(S(=O)(=O)c3ccc(Cl)cc3)CC2)ccc1-n1cnnn1`: the IC50 is 2.1 µM.

For `COc1cc(NC(C)=O)c2ncccc2c1[N+](=O)[O-]`, the IC50 was 21.1 µM.

`COC(=O)c1cc([N+](=O)[O-])c(-n2cncn2)c([N+](=O)[O-])c1`: the half-inhibitory concentration (IC50) is 5.07 µM.

With `O=C(/C=C\c1cccs1)c1c(O)ccc2ccc(=O)oc12`, the IC50 is 4.79 µM.

`O=C(NC1CCCCCC1)c1cc(S(=O)(=O)N2CCCCC2)ccc1N1CCOCC1`: the IC50 is 5.44 µM.

`N#C/C(=C\c1ccncc1)c1nc2ccccc2[nH]1`: the IC50 result was “inactive”.

As to `Cc1cc(NC(=O)/C=C/C(=O)N(CC(=O)NC2CCCC2)c2cccc3ccccc23)no1`, the IC50 was 9.96 µM.

Consider `CCOC(=O)c1c(NC(=O)C[n+]2ccc(Cc3ccccc3)cc2)sc(C)c1C`, for which the IC50 entry is “inactive”.

`N#C/C(=C\c1cccc([N+](=O)[O-])c1)c1nnc2n1CCCCC2`: the IC50 entry is “inactive”.

For `CC(C)c1[nH]nc2c1C(c1cccs1)C(C#N)=C(N)O2` (centres undefined), the IC50 result is “inactive”.

Turning to `N#Cc1cccc(N=c2ssnc2Cl)c1`, the 50% inhibitory concentration (IC50) is 8.39 µM.

Take `COCCNC(=O)/C(C#N)=C/c1c(F)cccc1Cl`: the IC50 was 9.2 µM.

Regarding `O=C1N=C2SCCN2/C1=C\c1ccc(Cl)cc1`, the IC50 is 4.79 µM.

Consider `Cc1cccc(C2c3[nH]c4ccccc4c3CCN2C(=O)c2nn(C)c(=O)c3ccccc23)n1` (centres undefined), for which the IC50 result is “inactive”.

For `CSc1ccc(/C=C(\C#N)C(=O)NC2CCCCC2C)cc1` (centres undefined), the 50% inhibitory concentration (IC50) was 3.24 µM.

With `COc1cc(/C=C(\C#N)C(=O)Nc2ccccc2C(=O)O)cc(Cl)c1OC`, the IC50 is 3.3 µM.

Consider `O=C(O)c1cccc(CN2C(=O)S/C(=C/c3cccc([N+](=O)[O-])c3)C2=O)c1`, for which the IC50 was 5.71 µM.

As for `CCCN1C(=O)/C(=C/c2ccncc2)SC1=S`, the IC50 was 7.7 µM.

In the case of `CC(/C=C1\SC(=S)N(CCCC(=O)Nc2ccc(C(=O)O)cc2)C1=O)=C\c1ccccc1`, the IC50 was 120 µM.

With `Cn1c(/C(C#N)=C/c2cccc(O)c2)nc2ccccc21`, the IC50 entry is “inactive”.

For `N#C/C(=C\c1ccc(O)c(Br)c1)C(=O)NCc1ccccc1`, the IC50 entry is “inactive”.

Turning to `Cc1cc(N2CCOCC2)ccc1/C=C\[N+](=O)[O-]`, the half-maximal inhibitory concentration (IC50) was 3.4 µM.

As to `COc1cccc(/C=C2\SC(=S)N(N3C(=O)CCCC3=O)C2=O)c1`, the IC50 entry is “inactive”.

On to `CCN1C(=O)c2cccc3c(S(=O)(=O)Nc4ccccc4OC)ccc1c23`, for which the IC50 entry is “inactive”.

For `COCCCNc1ccc([N+](=O)[O-])cc1C(=O)Nc1cccc(C)n1`, the IC50 is 13.7 µM.

As to `CCOC(=O)CS(=O)(=O)c1nc(-c2ccccc2)cc(C(F)(F)F)n1`, the IC50 was 12.4 µM.

Consider `CCOc1ccccc1N(CC(=O)N1CCOCC1)S(=O)(=O)c1ccc(SC)cc1`, for which the IC50 was 1.4 µM.

Regarding `COc1cccc(C(c2nnnn2Cc2ccccc2)N2CCN(C3CCCC3)CC2)c1OC` (centres undefined), the IC50 was 35.6 µM.

On to `Cc1cc(C)c(C)c(S(=O)(=O)NC2CCN(Cc3ccccc3)CC2)c1C`, for which the 50% inhibitory concentration (IC50) was 17 µM.

As for `Cc1ccc2nc(NC(=O)C(NS(=O)(=O)c3cccc4nsnc34)C(C)C)sc2c1` (centres undefined), the IC50 result is “inactive”.

For `COc1cc(/C=C(/C(=O)c2cccs2)c2nc3ccccc3[nH]2)ccc1O`, the IC50 result was “inactive”.

Take `N#C/C(=C\c1cccc(Oc2ccccc2)c1)C(=O)N1CCOCC1`: the IC50 is 6.57 µM.

For `CC(C)(C)c1ccc(N2C(=N)SCC2=O)cc1`, the IC50 is 3.24 µM.

As to `CCOC(=O)c1c(C)n(C)c2ccc(OC)c(NC(=O)CN3CCCCC3)c12`, the half-inhibitory concentration (IC50) is 7.88 µM.

Turning to `N#Cc1ccc(/C=C/C(=O)c2cccnc2)cc1`, the IC50 is 4.51 µM.

With `Cc1nn(CCCC(=O)N2CCN(c3ccc(F)cc3)CC2)c(C)c1[N+](=O)[O-]`, the IC50 entry is “inactive”.

For the molecule `CCCC(=O)OCCNc1cc(Sc2nccn2C)c2nonc2c1[N+](=O)[O-]`, the IC50 was 157 µM.

`Cc1ccc(C)n1-c1ccc(-n2cnnn2)cc1`: the IC50 is 10.4 µM.

For the molecule `CCCCNC(=O)/C(C#N)=C/c1ccc(F)cc1F`, the IC50 was 3.93 µM.

As to `CN(C)CCNC(=O)/C(=C/c1ccc(-c2ccc(Cl)cc2)o1)NC(=O)c1ccccc1`, the IC50 entry is “inactive”.

`O=C(c1nnsc1S(=O)c1ccc(Cl)cc1)N1CCOCC1` (centres undefined): the IC50 was 2.2 µM.

Regarding `Cc1c(Nc2cc(Cl)c3nonc3c2[N+](=O)[O-])c(=O)n(-c2ccccc2)n1C`, the IC50 was 52.8 µM.

As for `N#C/C(=C\c1ccc(Cl)c([N+](=O)[O-])c1)c1ccccn1`, the IC50 was 3.6 µM.

These data come from PubChem BioAssay AID2753 (Vanderbilt High Throughput Screening Facility, 2010).
